The values that follow come from patent publication US7671054B1, “Reverse-turn mimetics and method relating thereto” (Choongwae Pharma Corporation, priority 2001, dated 2010).

Holding throughout (type): cell-based
One assay has as its system Survivin. The experiment in a line: Effect on survivin expression (Table 9). The source says:
(§1) The effects of various compounds having general formula (I) on survivin and TCF4 expression were characterized.

The next assay relates to TCF4. Nature of the assay: Effect on TCF4 expression (Table 9).
From the text: as §1

The test system of assay [1] is TCF4/β-catenin transcription (TOPFlash) in SW480 cells. Nature of the assay: Reporter gene assay (TOPFlash luciferase). The conditions noted are these: Homo sapiens, SW480, Table 10; prodrug compounds, reporter gene assay TopF; read-out: RGA, TopF IC50. In short, it runs like this: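 SW480 cells transiently co-transfected with TOPFlash and pRL-null (4:1 µg) using Superfect, then reseeded at 3×10^4 cells/well and incubated overnight at 37 °C. Compound treatment lasted 24 h before luciferase read-out.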
A general note: In a reporter assay the amount or activity of a reporter protein is the signal.

In assay [2] the test system is HCT116 cells. Nature of the assay: MTS cytotoxicity test. The conditions noted are these: Homo sapiens, HCT-116, Table 10, prodrug compounds, 24 hours treatment, read-out: MTS, HCT116 (uM) LD50. How it is done: (§2) SW480 or HCT116 cells were placed into 96 well microplate (10^4cells/well) and incubated for 24 hours at 37° C. The cells were treated with TCF4 compound at various concentrations for 24 hours. 20 μl of MTS solution (Promega) was added into each well and incubated for 2 hours at 37° C. Cell viability was measured by reading the absorbance at 490 nm using microplate reader (Molecular Device) and cytotoxicity of a compound at each concentration was calculated.
On the technique in general: Tetrazolium assays rely on reduction of a dye to a coloured formazan, in cell work by metabolically active cells.

In assay [3] the test system is SW480 cells. Nature of the assay: MTS cytotoxicity test. As to conditions: Homo sapiens, Table 10, prodrug compounds, 24 hours treatment, read-out: MTS, SW480 (uM) LD50. The procedure:
as §2

Assay [4] has as its system HCT116 cells. Nature of the assay: Growth inhibition assay (MTS). As to conditions: Homo sapiens, HCT-116; Table 10; prodrug compounds, HCT116 cells, growth inhibition; read-out: MTS, HCT116 (uM) GI50. In short, it runs like this:
(§3)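 Cells seeded at 10^4 per well, grown 24 h at 37° C, then exposed to compound at various concentrations for 48 hours. MTS added for 2 h; absorbance at 490 nm gave viability, with cytotoxicity calculated per concentration against pre-treatment reading.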

Assay [5] concerns SW480 cells. The experiment in a line: Growth inhibition assay (MTS). The conditions noted are these: Homo sapiens; Table 10; prodrug compounds, SW480 cells, growth inhibition; read-out: MTS, SW480 (uM) GI50. In short, it runs like this:
as §3

For assay [6], the system named is survivin promoter in SW480 cells. The experiment in a line: Survivin luciferase reporter in SW480 cells. As to conditions: Homo sapiens, SW480; Table 10; prodrug compounds, reporter gene assay Survivin; read-out: RGA, Survivin IC50.

SMILES strings stand for the structures.

As usually defined, the inhibition is the percentage by which the read-out fell short of the control. Low values mean a response near the control, high ones a response far below the control. As a reminder, the GI50 is the concentration at which growth is held to half of that of the control.

Take `CN1CC(=O)N2[C@@H](Cc3ccc(O)cc3)C(=O)N(Cc3cccc4ccccc34)C[C@@]2(C)N1C(=O)NCc1ccccc1`: in the assay on Survivin, the inhibition at 5 µM is 100% and at 25 µM the inhibition was 99%. The compound also displayed an IC50 in the assay with TCF4 of about 2 µM.

Turning to `CN1CC(=O)N2C(Cc3ccc(O)cc3)C(=O)N(Cc3cccc4cccnc34)CC2N1C(=O)NCc1ccccc1` (stereo not shown), in the assay on Survivin, the inhibition at 5 µM was 97% and 25 µM produced 100% inhibition. In the assay on TCF4, this compound registered an IC50 of about 2.2 µM.

In the assay on Survivin, `CN(C)c1cc(Cl)ccc1CN1C[C@@H]2N(C(=O)CN(C)N2C(=O)NCc2ccccc2)[C@@H](Cc2ccc(O)cc2)C1=O` came in with an inhibition at 5 µM of 6% and an inhibition at 25 µM of 89%. This compound showed an IC50 in the assay with TCF4 of 13.9 ± 2.3 µM.

In the assay with Survivin, `Cc1ccc(N(C)C(C)C)c(CN2C[C@@H]3N(C(=O)CN(C)N3C(=O)NCc3ccccc3)[C@@H](Cc3ccc(O)cc3)C2=O)c1` showed an inhibition at 5 µM of 14% and an inhibition at 25 µM of 99%. The IC50 in the assay with TCF4 was determined as 10.7 ± 1.9 µM.

In the assay on Survivin, `CC(C)N(C)c1ccc(Cl)c(CN2C[C@@H]3N(C(=O)CN(C)N3C(=O)NCc3ccccc3)[C@@H](Cc3ccc(O)cc3)C2=O)c1` displayed an inhibition at 5 µM of 25% and an inhibition at 25 µM of 44%. Also, the IC50 in the assay with TCF4 came to 27.1 ± 4.6 µM.

On to `CN1CC(=O)N2[C@@H](Cc3ccc(OP(=O)(O)O)cc3)C(=O)N(Cc3cccc4ccccc34)C[C@@H]2N1C(=O)NCc1ccccc1` [Compound 2], for which the IC50 worked out at 3.5 µM in assay [1], 23.2 µM with HCT116 cells [2], 8.2 µM in the assay with SW480 cells [3] and 5.7 µM in assay [6]. The GI50 in the assay on HCT116 cells [4] came out at 6.6 µM; with SW480 cells [5], 3.1 µM.

Consider `CN(C)c1cc(F)ccc1CN1C[C@H]2N(C(=O)CN(C)N2C(=O)NCc2ccccc2)[C@@H](Cc2ccc(OP(=O)(O)O)cc2)C1=O` [Compound 3], for which the IC50 in assay [1] is 11.5 µM; in the assay with HCT116 cells [2], 41.9 µM; with SW480 cells [3] it was over 50 µM. The GI50 in the assay on HCT116 cells [4] was determined as 3.1 µM; in the assay with SW480 cells [5], 3 µM.

Turning to `CN1CC(=O)N2[C@@H](Cc3ccc(OP(=O)(O)O)cc3)C(=O)N(Cc3ccc(F)cc3F)C[C@@H]2N1C(=O)NCc1ccccc1` [Compound 4], the IC50 in assay [1] was 7.3 µM; with HCT116 cells [2] it was 49.3 µM; in the assay on SW480 cells [3] it was over 50 µM; in assay [6] it was 6.5 µM. The figures for the GI50 with HCT116 cells [4] and with SW480 cells [5] were 11.4 µM and 6.9 µM, respectively.

Turning to `CN1CC(=O)N2[C@@H](Cc3ccc(OP(=O)(O)O)cc3)C(=O)N(Cc3cccc4cnn(C)c34)C[C@@H]2N1C(=O)NCc1ccccc1` [Compound 5], the IC50 in assay [1] was 26 µM; with HCT116 cells [2], over 50 µM; in the assay on SW480 cells [3], 34 µM. Besides, the GI50 in the assay on HCT116 cells [4] was 16.5 µM; in the assay on SW480 cells [5], 5.2 µM.

For `C=CCN1CC(=O)N2[C@@H](Cc3ccc(OP(=O)(O)O)cc3)C(=O)N(Cc3cccc4cccnc34)C[C@@H]2N1C(=O)NCc1ccccc1` [Compound 6], the IC50 came out at 0.8 µM in assay [1], 6.4 µM with HCT116 cells [2], 9.2 µM with SW480 cells [3] and 0.1 µM in assay [6]. Moreover, the GI50 in the assay on HCT116 cells [4] stood at 0.4 µM; in the assay with SW480 cells [5], 0.5 µM.

In the case of `C=CCN1CC(=O)N2[C@@H](Cc3ccc(OP(=O)(O)O)cc3)C(=O)N(Cc3ccc(Cl)c4cccnc34)C[C@@H]2N1C(=O)NCc1ccccc1` [Compound 7], the IC50 in assay [1] stood at 2.3 µM; in the assay on HCT116 cells [2] it was 12 µM; with SW480 cells [3] it was 12.9 µM; in assay [6], 1 µM. The GI50 in the assay on HCT116 cells [4] was found to be 1.8 µM; in the assay with SW480 cells [5], 2.2 µM.

Take `C=CCN1CC(=O)N2[C@@H](Cc3ccc(OP(=O)(O)O)cc3)C(=O)N(Cc3ccc(F)cc3F)C[C@@H]2N1C(=O)NCc1ccccc1` [Compound 8]: the IC50 in assay [1] is 1.4 µM; with HCT116 cells [2] it was 23.2 µM; in the assay with SW480 cells [3] it was 21.6 µM; in assay [6] it was 0.9 µM. For the same compound, the values for the GI50 with HCT116 cells [4] and in the assay with SW480 cells [5] were 1.9 µM and 2.1 µM, respectively.
